Earlier results in patent US20260294906A1, “TREATING PSORIASIS USING A SMALL MOLECULE INHIBITOR OF TUMOR NECROSIS FACTOR ALPHA” (SANOFI, priority 2023, published 2026).

Columns and labels:
[1] = tested on: TNFR1; conditions: Jurkat cells; sTNFα pre-incubated with the substance, compared with sTNFα alone; cited from earlier work
[2] = tested on: sTNFα; conditions: O'Connell et al.; cited from earlier work

Row | Molecule | TNFR1 signaling (RIP-1 ubiquitination and NF-κB phosphorylation) [1] | stabilization of the asymmetric sTNFα trimer [2]
1 | Cc1ccc(C)c(Cn2c(C(O)c3ccncc3)nc3ccc(-c4cnn(C)c4)cc32)c1 (stereo not drawn) [UCB-9260, reference compound] | impaired | stabilizes the asymmetric sTNFα trimer
2 | etanercept | impaired | 
